How the values were obtained:
[1] = tested on: NPM/ALK (Nucleophosmin/ALK tyrosine kinase receptor) (Homo sapiens), Q9UM73+P06748 [F1174L]; assay: Inhibition of ALK F1174L mutant (unknown origin)/NPM1 (unknown origin) assessed as residual activity at 1 uM relative to control; format: protein assay
[2] = biological target: Serine/threonine-protein kinase SIK1 (Homo sapiens) (UniProt P57059); assay: Inhibition of SIK1 (unknown origin) assessed as residual activity at 1 uM relative to control
[3] = tested on: ALK tyrosine kinase receptor (Homo sapiens), Q9UM73 [G1269A]; assay: Inhibition of ALK G1269A mutant (unknown origin) assessed as residual activity at 1 uM relative to control
[4] = Metabolic stability in human liver microsome assessed as parent compound remaining preincubated for 10 mins followed by NADPH addition and measured at 60 mins by LC-MS/MS analysis; format: ADME; conditions: liver microsomes, time 70 min, read-out: Stability
[5] = MRT (0 to t) in Sprague-Dawley rat at 10 mg/kg, po measured upto 24 hrs by LC-MS/MS analysis; format: ADME, organism-based; conditions: in vivo
ALK-TFG (Homo sapiens) [6] = biological target: T1, ALK-TFG (Homo sapiens) (UniProt Q9UM73+Q92734); assay: Inhibition of ALK-TFG (unknown origin) assessed as residual activity at 1 uM relative to control; format: protein assay
[7] = tested on: ALK tyrosine kinase receptor (Homo sapiens), Q9UM73 [UNDEFINED MUTATION]; assay: Inhibition of ALK T1151/L1152 mutant (unknown origin) assessed as residual activity at 1 uM relative to control
[8] = C0 in Sprague-Dawley rat at 2 mg/kg, iv measured upto 24 hrs by LC-MS/MS analysis; format: ADME, organism-based; conditions: in vivo
[9] = tested on: ALK tyrosine kinase receptor (Homo sapiens), Q9UM73 [G1269S]; assay: Inhibition of ALK G1269S mutant (unknown origin) assessed as residual activity at 1 uM relative to control
[10] = tested on: EML4-ALK (Homo sapiens), Q9UM73+Q9HC35 [F1174L]; assay: Inhibition of ALK F1174L mutant (unknown origin)/EML4 (unknown origin) assessed as residual activity at 1 uM relative to control; format: protein assay
[11] = Tmax in Sprague-Dawley rat at 10 mg/kg, po measured upto 24 hrs by LC-MS/MS analysis; format: ADME, organism-based; conditions: in vivo
[12] = Metabolic stability in human liver microsome assessed as parent compound remaining preincubated for 10 mins followed by NADPH addition and measured at 15 mins by LC-MS/MS analysis; format: ADME; conditions: liver microsomes, time 25 min, read-out: Stability
[13] = biological target: NUAK family SNF1-like kinase 2 (Homo sapiens) (UniProt Q9H093); assay: Inhibition of SNARK (unknown origin) assessed as residual activity at 1 uM relative to control
[14] = biological target: Leucine-rich repeat serine/threonine-protein kinase 2 (Homo sapiens) (UniProt Q5S007); assay: Inhibition of LRRK2 (unknown origin) assessed as residual activity at 1 uM relative to control
[15] = biological target: Activated CDC42 kinase 1 (Homo sapiens) (UniProt Q07912); assay: Inhibition of ACK1 (unknown origin) assessed as residual activity at 1 uM relative to control
[16] = tested on: Fibroblast growth factor receptor 2 (Homo sapiens), P21802 [V564F]; assay: Inhibition of FGFR2 V564F mutant (unknown origin) assessed as residual activity at 1 uM relative to control
[17] = Metabolic stability in human liver microsome assessed as parent compound remaining preincubated for 10 mins followed by NADPH addition and measured at 30 mins by LC-MS/MS analysis; format: ADME; conditions: liver microsomes, time 40 min, read-out: Stability
[18] = biological target: NUAK family SNF1-like kinase 1 (Homo sapiens) (UniProt O60285); assay: Inhibition of ARK5 (unknown origin) assessed as residual activity at 1 uM relative to control
[19] = MRT (0 to t) in Sprague-Dawley rat at 2 mg/kg, iv measured upto 24 hrs by LC-MS/MS analysis; format: ADME, organism-based; conditions: in vivo
[20] = tested on: ALK tyrosine kinase receptor (Homo sapiens), Q9UM73 [C1156Y]; assay: Inhibition of ALK C1156Y mutant (unknown origin) assessed as residual activity at 1 uM relative to control
[21] = biological target: Epithelial discoidin domain-containing receptor 1 (Homo sapiens) (UniProt Q08345); assay: Inhibition of DDR1 (unknown origin) assessed as residual activity at 1 uM relative to control
[22] = Metabolic stability in human liver microsome assessed as intrinsic clearance preincubated for 10 mins followed by NADPH addition and measured upto 60 mins by LC-MS/MS analysis; format: ADME; conditions: liver microsomes, time < 70 min, read-out: CLH
[23] = biological target: Tyrosine-protein kinase Fer (Homo sapiens) (UniProt P16591); assay: Inhibition of FER (unknown origin) assessed as residual activity at 1 uM relative to control
[24] = biological target: Calcium/calmodulin-dependent protein kinase kinase 2 (Homo sapiens) (UniProt Q96RR4); assay: Inhibition of CAMKK2 (unknown origin) assessed as residual activity at 1 uM relative to control
[25] = MRT (0 to infinity) in Sprague-Dawley rat at 2 mg/kg, iv measured upto 24 hrs by LC-MS/MS analysis; format: ADME, organism-based; conditions: in vivo
[26] = biological target: Receptor-type tyrosine-protein kinase FLT3 (Homo sapiens) (UniProt P36888); assay: Inhibition of FLT3 (unknown origin) assessed as residual activity at 1 uM relative to control
[27] = biological target: Tyrosine-protein kinase JAK3 (Homo sapiens) (UniProt P52333); assay: Inhibition of JAK3 (unknown origin) assessed as residual activity at 1 uM relative to control
[28] = tested on: ALK tyrosine kinase receptor (Homo sapiens), Q9UM73 [F1174S]; assay: Inhibition of ALK F1174S mutant (unknown origin) assessed as residual activity at 1 uM relative to control
[29] = Toxicity in BALB/c nude mouse xenografted with human MDA-MB-468 cells assessed as change in body weight at 30 mg/kg, iv administered once daily for 21 days […]; format: organism-based; conditions: in vivo, 504 h, time 21 day
ALK-TFG (Homo sapiens) [30] = biological target: T1, ALK-TFG (Homo sapiens); assay: Inhibition of ALK-TFG (Tex4Aex20) (unknown origin) assessed as residual activity at 1 uM relative to control; format: protein assay
[31] = Volume of distribution at steady state in Sprague-Dawley rat at 2 mg/kg, iv measured upto 24 hrs by LC-MS/MS analysis; format: ADME, organism-based; conditions: in vivo, read-out: Vdss
[32] = Oral bioavailability in Sprague-Dawley rat at 10 mg/kg measured upto 24 hrs by LC-MS/MS analysis; format: ADME, organism-based; conditions: in vivo
[33] = AUC (0 to t) in Sprague-Dawley rat at 10 mg/kg, po measured upto 24 hrs by LC-MS/MS analysis; format: ADME, organism-based; set-up: time < 24 hrs, dose 10 mg/kg, route po; conditions: in vivo
[34] = AUC (0 to infinity) in Sprague-Dawley rat at 2 mg/kg, iv measured upto 24 hrs by LC-MS/MS analysis; format: ADME, organism-based; set-up: dose 2 mg/kg, time < 24 hrs, route iv; conditions: in vivo
[35] = biological target: Macrophage colony-stimulating factor 1 receptor (Homo sapiens) (UniProt P07333); assay: Inhibition of FMS (unknown origin) assessed as residual activity at 1 uM relative to control

T1 sequence (Q92734 whole entry, looked up): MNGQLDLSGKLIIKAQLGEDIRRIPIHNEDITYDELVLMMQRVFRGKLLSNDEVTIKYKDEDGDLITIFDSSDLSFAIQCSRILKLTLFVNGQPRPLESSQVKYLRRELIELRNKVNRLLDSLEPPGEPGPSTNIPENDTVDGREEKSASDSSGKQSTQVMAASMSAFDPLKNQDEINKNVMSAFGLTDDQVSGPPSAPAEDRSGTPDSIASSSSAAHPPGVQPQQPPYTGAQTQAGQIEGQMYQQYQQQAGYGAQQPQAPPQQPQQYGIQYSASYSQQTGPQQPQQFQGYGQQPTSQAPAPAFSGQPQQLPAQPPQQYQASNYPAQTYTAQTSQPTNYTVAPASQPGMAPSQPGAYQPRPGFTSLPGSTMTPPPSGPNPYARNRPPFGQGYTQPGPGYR
T1 sequence (Q9UM73 whole entry, looked up): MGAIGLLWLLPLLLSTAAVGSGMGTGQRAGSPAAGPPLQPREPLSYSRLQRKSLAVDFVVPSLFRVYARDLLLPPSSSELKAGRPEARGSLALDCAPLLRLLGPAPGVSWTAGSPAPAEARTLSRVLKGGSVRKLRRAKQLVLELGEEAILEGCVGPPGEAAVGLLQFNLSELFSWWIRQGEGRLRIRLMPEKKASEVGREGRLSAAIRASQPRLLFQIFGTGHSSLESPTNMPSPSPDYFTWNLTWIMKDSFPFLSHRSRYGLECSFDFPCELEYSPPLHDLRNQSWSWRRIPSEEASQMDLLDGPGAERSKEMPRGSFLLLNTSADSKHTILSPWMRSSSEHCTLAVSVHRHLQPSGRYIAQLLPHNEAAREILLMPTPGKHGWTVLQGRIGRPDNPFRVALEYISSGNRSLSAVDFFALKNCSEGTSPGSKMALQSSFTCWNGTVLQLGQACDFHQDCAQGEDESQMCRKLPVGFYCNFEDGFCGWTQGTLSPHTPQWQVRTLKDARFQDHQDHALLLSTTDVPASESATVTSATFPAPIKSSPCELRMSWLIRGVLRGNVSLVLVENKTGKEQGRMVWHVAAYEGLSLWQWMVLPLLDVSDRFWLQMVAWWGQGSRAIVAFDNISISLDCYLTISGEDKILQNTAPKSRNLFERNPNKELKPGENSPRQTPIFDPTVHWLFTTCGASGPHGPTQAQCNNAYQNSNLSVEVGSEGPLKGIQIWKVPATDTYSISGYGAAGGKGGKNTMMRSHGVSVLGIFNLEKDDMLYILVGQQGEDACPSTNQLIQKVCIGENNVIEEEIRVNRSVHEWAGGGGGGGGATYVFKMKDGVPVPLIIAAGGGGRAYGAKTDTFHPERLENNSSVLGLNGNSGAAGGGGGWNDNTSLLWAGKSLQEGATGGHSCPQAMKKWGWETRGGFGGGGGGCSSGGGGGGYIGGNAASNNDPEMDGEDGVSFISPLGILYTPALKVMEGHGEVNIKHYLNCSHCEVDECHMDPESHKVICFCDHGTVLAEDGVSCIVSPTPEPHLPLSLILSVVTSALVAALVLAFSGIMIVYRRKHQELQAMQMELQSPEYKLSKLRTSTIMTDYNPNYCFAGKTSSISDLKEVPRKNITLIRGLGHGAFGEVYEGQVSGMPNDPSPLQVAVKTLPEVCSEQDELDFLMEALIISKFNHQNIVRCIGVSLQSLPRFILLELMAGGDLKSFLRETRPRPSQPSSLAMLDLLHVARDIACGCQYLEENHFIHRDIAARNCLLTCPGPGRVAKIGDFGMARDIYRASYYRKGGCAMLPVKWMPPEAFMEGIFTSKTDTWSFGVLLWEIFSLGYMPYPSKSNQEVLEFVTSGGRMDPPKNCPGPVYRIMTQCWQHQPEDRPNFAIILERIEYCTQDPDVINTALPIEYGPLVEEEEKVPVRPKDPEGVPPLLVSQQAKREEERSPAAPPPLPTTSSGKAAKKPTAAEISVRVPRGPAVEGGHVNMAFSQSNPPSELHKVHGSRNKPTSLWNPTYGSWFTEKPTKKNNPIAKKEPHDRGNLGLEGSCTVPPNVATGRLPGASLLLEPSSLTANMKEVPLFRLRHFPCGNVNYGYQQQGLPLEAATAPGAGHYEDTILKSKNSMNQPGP
Chain of ALK tyrosine kinase receptor (Homo sapiens), Q9UM73 [UNDEFINED MUTATION] (Q9UM73 whole entry, looked up, change not shown): as the sequence (Q9UM73 whole entry, looked up) above
Chain of Tyrosine-protein kinase Fer (Homo sapiens) (P16591 whole entry, looked up): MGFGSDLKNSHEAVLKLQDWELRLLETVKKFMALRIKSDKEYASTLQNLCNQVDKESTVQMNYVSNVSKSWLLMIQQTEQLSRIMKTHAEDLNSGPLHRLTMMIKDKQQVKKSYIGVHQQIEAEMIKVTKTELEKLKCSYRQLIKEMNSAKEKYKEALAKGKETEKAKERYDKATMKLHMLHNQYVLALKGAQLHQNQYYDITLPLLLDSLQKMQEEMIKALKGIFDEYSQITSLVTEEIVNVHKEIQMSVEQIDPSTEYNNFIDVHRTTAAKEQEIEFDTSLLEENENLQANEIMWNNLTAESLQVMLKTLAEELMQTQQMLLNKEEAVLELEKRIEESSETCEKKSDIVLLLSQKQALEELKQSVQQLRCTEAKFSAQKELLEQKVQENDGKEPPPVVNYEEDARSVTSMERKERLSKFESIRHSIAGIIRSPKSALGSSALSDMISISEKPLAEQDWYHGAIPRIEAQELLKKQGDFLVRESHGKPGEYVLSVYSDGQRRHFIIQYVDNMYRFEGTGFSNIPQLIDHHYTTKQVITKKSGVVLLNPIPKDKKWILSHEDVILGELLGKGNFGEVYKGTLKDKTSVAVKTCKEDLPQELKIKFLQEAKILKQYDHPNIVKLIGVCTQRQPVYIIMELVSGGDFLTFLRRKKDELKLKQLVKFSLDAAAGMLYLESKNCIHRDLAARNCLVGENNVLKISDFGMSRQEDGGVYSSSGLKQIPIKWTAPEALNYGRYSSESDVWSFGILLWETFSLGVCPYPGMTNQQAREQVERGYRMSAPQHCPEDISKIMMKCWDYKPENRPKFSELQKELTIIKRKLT
Chain of NUAK family SNF1-like kinase 2 (Homo sapiens) (Q9H093 whole entry): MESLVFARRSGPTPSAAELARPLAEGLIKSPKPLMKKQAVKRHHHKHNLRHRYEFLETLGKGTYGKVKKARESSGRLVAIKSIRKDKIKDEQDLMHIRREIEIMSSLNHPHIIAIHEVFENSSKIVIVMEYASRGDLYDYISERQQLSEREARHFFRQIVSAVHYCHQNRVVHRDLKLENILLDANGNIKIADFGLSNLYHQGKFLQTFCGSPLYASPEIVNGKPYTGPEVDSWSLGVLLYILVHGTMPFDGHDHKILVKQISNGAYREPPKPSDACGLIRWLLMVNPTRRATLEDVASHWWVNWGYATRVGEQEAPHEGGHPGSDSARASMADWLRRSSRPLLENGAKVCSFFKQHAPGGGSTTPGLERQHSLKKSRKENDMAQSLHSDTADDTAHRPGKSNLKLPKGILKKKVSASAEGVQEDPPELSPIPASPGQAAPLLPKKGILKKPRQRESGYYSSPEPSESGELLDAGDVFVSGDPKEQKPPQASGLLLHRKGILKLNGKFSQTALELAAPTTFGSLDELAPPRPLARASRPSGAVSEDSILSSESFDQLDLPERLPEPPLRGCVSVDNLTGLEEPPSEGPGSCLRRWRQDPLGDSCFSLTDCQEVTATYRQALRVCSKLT

CCc1cccc(CC)c1N1CCn2cc(-c3nc(Nc4ccc(N5CCN(C(C)=O)CC5)cc4OC)nc4[nH]ncc34)cc2C1=O
Activity [1]: < 10%
Activity [2]: < 10%
Activity [3]: < 10%
remaining at 1 h [4]: 29.4%
MRT last at 24 h [5]: 66.6 min
Activity (ALK-TFG (Homo sapiens) [6]): < 10%
Activity [7]: < 10%
C0 at 24 h [8]: 5240 ng/mL
Activity [9]: < 10%
Activity [10]: < 10%
Tmax [11]: 20 min
remaining at 0.25 h [12]: 64.6%
Activity [13]: < 10%
Activity [14]: < 10%
Activity [15]: < 10%
Activity [16]: < 10%
remaining at 0.5 h [17]: 48.7%
Activity [18]: < 10%
MRT last at 24 h [19]: 20.4 min
Activity [20]: < 10%
Activity [21]: < 10%
CLint scaled [22]: 33.5 mL/min/kg
Activity [23]: < 10%
Activity [24]: < 10%
MRT inf [25]: 21.2 min
Activity [26]: < 10%
Activity [27]: < 10%
Activity [28]: < 10%
Activity [29]: Non-Toxic
Activity (ALK-TFG (Homo sapiens) [30]): < 10%
Vd [31]: 0.672 L/kg
bioavailability [32]: 3.95%
AUC(0-t) at 24 h [33]: 204 ng·h/mL
AUC(0-inf) [34]: 1050 ng·h/mL
Activity [35]: < 10%

From ChEMBL document CHEMBL5360570, “Discovery of pyrazolo[3,4-b]pyridine derivatives as novel and potent Mps1 inhibitors for the treatment of cancer” (Eur J Med Chem, 2023)
